From patent US20010039275A1, “Use of 2,4-diaminothiazole derivatives” (priority 2000, published 2001)

Point of comparison: `Nc1nc(Nc2ccccc2)sc1C(=O)Nc1ccccc1` [Example 45, 4-Amino-2-phenylaminothiazole-5-carboxylic acid phenylamide], melting point 75 °C. Against it:
- Nc1nc(Nc2ccccc2)sc1C(=O)c1ccc(C(F)(F)F)cc1 [Example 6, (4-Amino-2-phenylaminothiazol-5-yl)-(4-trifluoromethylphenyl)methanone] — higher, 201 to 205 °C
- CCN(CC)c1ccc(C(=O)c2sc(Nc3ccccc3)nc2N)cc1 [Example 7, (4-Amino-2-phenylaminothiazol-5-yl)-(4-diethylaminophenyl)methanone] — higher, 214 to 216 °C
- Nc1nc(Nc2ccccc2)sc1C(=O)c1ccc(OC(F)(F)F)cc1 [Example 8, (4-Amino-2-phenylaminothiazol-5-yl)-(4-trifluoromethoxyphenyl)methanone] — higher, 170 to 173 °C
- CCC(=O)c1sc(Nc2ccccc2)nc1N [Example 11, 1-(4-Amino-2-phenylaminothiazol-5-yl)propan-1-one] — higher, 136 to 139 °C
- Nc1nc(Nc2ccccc2)sc1C(=O)c1ccc(F)c(F)c1 [Example 12, (4-Amino-2-phenylaminothiazol-5-yl)-(3,4-difluorophenyl)methanone] — higher, 178 to 180 °C
- Nc1nc(Nc2ccccc2)sc1C(=O)c1cccc(F)c1 [Example 13, (4-Amino-2-phenylaminothiazol-5-yl)-(3-fluorophenyl)methanone] — higher, 161 to 164 °C
- Nc1nc(Nc2ccccc2)sc1C(=O)c1ccc2ccccc2c1 [Example 14, (4-Amino-2-phenylaminothiazol-5-yl)naphthalen-2-ylmethanone] — higher, 227 to 229 °C
- Nc1nc(Nc2ccccc2)sc1C(=O)c1ccc(-c2ccccc2)cc1 [Example 15, (4-Amino-2-phenylaminothiazol-5-yl)biphenyl-4-ylmethanone] — higher, 224 to 225 °C
- Nc1nc(Nc2ccccc2)sc1C(=O)c1cccc(OCc2ccccc2)c1 [Example 16, (4-Amino-2-phenylaminothiazol-5-yl)-(3-benzyloxyphenyl)methanone] — higher, 121 to 124 °C
- Nc1nc(Nc2ccc(Br)cc2)sc1C(=O)C1CC1 [Example 17, [4-Amino-2-(4-bromophenylamino)thiazol-5-yl]cyclopropylmethanone] — higher, 204 to 206 °C
- Nc1nc(Nc2ccccc2)sc1C(=O)c1ccc(Cl)c(Cl)c1 [Example 18, (4-Amino-2-phenylaminothiazol-5-yl)-(3,4-dichlorophenyl)methanone] — higher, 195 to 198 °C
- Cc1c(C(=O)c2sc(Nc3ccccc3)nc2N)sc2ccccc12 [Example 19, (4-Amino-2-phenylaminothiazol-5-yl)-(3-methylbenzo[b]thiophen-2-yl) methanone] — higher, 165 to 167 °C
- Nc1nc(Nc2ccccc2)sc1-c1ccc([N+](=O)[O-])cc1 [Example 20, 4-Amino-2-phenylamino-5-(4-nitrophenyl)thiazole] — higher, 217 to 219 °C
- Nc1nc(Nc2ccccc2)sc1C(=O)c1ccc(Cl)s1 [Example 21, (4-Amino-2-phenylaminothiazol-5-yl)-(5-chlorothiophen-2-yl)methanone] — higher, 167 to 169 °C
- COc1ccccc1C(=O)c1sc(Nc2ccccc2)nc1N [Example 22, (4-Amino-2-phenylaminothiazol-5-yl)-(2-methoxyphenvl)methanone] — higher, 196 to 200 °C
- COc1cccc(C(=O)c2sc(Nc3ccccc3)nc2N)c1 [Example 23, (4-Amino-2-phenylaminothiazol-5-yl)-(3-methoxyphenyl)methanone] — higher, 174 to 175 °C
- Nc1nc(Nc2ccccc2)sc1C(=O)c1ccccc1[N+](=O)[O-] [Example 25, (4-Amino-2-phenylaminothiazol-5-yl)-(2-nitrophenyl)methanone] — higher, 117 to 119 °C
- Nc1nc(Nc2ccccc2)sc1C(=O)c1ccc([N+](=O)[O-])cc1 [Example 27, (4-Amino-2-phenylaminothiazol-5-yl)-(4-nitrophenyl)methanone] — higher, 206 to 208 °C
- Cc1cc(C(=O)c2sc(Nc3ccccc3)nc2N)ccc1Cl [Example 28, (4-amino-2-phenylaminothiazol-5-yl)-(4-chloro-3-methylphenyl)methanone] — higher, 173 to 175 °C
- Nc1nc(Nc2ccccc2)sc1C(=O)c1ccc(O)c(O)c1 [Example 29, (4-Amino-2-phenylaminothiazol-5-yl)-(3,4-dihydroxyphenyl)methanone] — higher, 222 to 224 °C
- COc1ccc(C(=O)c2sc(Nc3ccccc3)nc2N)c(OC)c1 [Example 30, (4-Amino-2-phenylaminothiazol-5-yl)-(2,4-dimethoxyphenyl)methanone] — higher, 196 to 198 °C
- CCCNc1nc(N)c(C(=O)c2cccnc2)s1 [Example 32, (4-Amino-2-propylaminothiazol-5-yl)pyridin-3-yl-methanone] — higher, 205 to 206 °C
- Cc1cc(C)c(C(=O)c2sc(Nc3ccccc3)nc2N)c(C)c1 [Example 35, (4-Amino-2-phenylaminothiazol-5-yl)-(2,4,6-trimethylphenyl)methanone] — higher, 198 to 200 °C
- COc1cccc(OC)c1C(=O)c1sc(Nc2ccccc2)nc1N [Example 37, (4-Amino-2-phenylaminothiazol-5-yl)-(2,6-dimethoxyphenyl)methanone] — higher, 224 to 226 °C
- COC(=O)c1sc(Nc2ccccc2)nc1N [Example 38, 4-Amino-2-phenylaminothiazole-5-carboxylic acid methyl ester] — higher, 173 to 174 °C
- Nc1nc(Nc2ccccc2)sc1C(=O)c1csc2ccccc12 [Example 40, (4-Amino-2-phenylaminothiazol-5-yl)-benzofblthiophen-3-yl-methanone] — higher, 211 to 212 °C
- Nc1nc(Nc2ccccc2)sc1C(=O)c1c(Cl)cccc1Cl [Example 42, (4-Amino-2-phenylaminothiazol-5-yl)-(2,6-dichlorophenyl)methanone] — higher, 245 to 246 °C
- CON(C)C(=O)c1sc(Nc2ccccc2)nc1N [Example 46, 4-Amino-2-phenyiaminothiazole-5-carboxylic acid methoxymethylamide] — higher, 152 to 153 °C
- Nc1nc(Nc2ccccc2)sc1C(=O)N1CCOCC1 [Example 49, (4-Amino-2-phenylaminothiazol-5-yl)morpholin-4-ylmethanone] — higher, 212 to 213 °C
- Nc1nc(Nc2ccc(Cl)cc2)sc1C(=O)c1cccc(OCc2ccccc2)c1 [Example 54, [4-Amino-2-(4-chlorophenylamino)thiazol-5-yl]-(3-benzyloxyphenyl)methanone] — higher, 173 to 174 °C
